How the values were obtained:
CPP32 [1] = assay: Apaf-2 activity: recombining with phosphocellulose flow through fraction (Apaf-1) and 35S-labeled CPP32; assay type: biochemical, human; settings: phosphocellulose fraction alone, with or without 1 mM dATP
Description: FIG. 3 illustrates fractionation and reconstitution of dATP-dependent activation of CPP32 by phosphocellulose chromatography. HeLa cell S-100 was subjected to phosphocellulose chromatography and the column flow through and bound material were collected as described in the Examples. Aliquots (10 μl) of HeLa S-100 (50 μg) (lanes 1 and 2), phosphocellulose flow through fraction (PC-FT) (lanes 3 and 4), phosphocellulose bound fraction (PC-B) (lanes 5 and 6), and the mixture of phosphocellulose flow through and bound material (lanes 7 and 8) were incubated with aliquots of 3 μl in vitro translated, ^35S-labeled CPP32 at 30° C. for 1 hr in the absence (lanes 1,3,5,7) or presence (lanes 2,4,6,8) of 1 mM dATP. The samples were subjected to SDS-PAGE, transferred to a nitrocellulose filter, and the filter was exposed to film for 16 hours at room temperature.
The Apaf-2 activity that bound to the phosphocellulose column was purified through the Mono S column as described in Example 7. […] In FIG. 4B, aliquots (30 μl) of the Mono-S fractions were subjected to 15% SDS-PAGE and the proteins were visualized by silver staining.
Aliquots of 0.2 μg of Apaf-2 purified through the Mono S column (lanes 1, 2), cytochrome c from bovine heart (lanes 3, 4), and rat liver (lanes 5, 6) were incubated with aliquots of 10 μl phosphocellulose flowthrough fraction and 3 μl in vitro translated, 35S-labeled CPP32 at 30° C. for 1 hr in a final volume of 20 μl buffer A in the absence (lanes 1,3,5) or presence of (lanes 2, 4, 6) 1 mM dATP. Samples were subjected to SDS-PAGE and transferred to a nitrocellulose filter which was then exposed to a film for 16 hr at room temperature.
To isolate the protein(s) required for the activation of CPP32, HeLa S-100 was loaded onto a phosphocellulose column, and the flow-through and bound fractions were collected. […] When the flowthrough and bound fractions were mixed, CPP32-activating activity was restored (lanes 7-8). […] The factor(s) that flow through the phosphocellulose column are designated apoptotic protease activating factor-1 (Apaf-1) and the factor that bound to the column is designated apoptotic protease activating factor-2 (Apaf-2). It is understood that “Apaf-1” may represent more than one protein or it may represent a combination of protein(s) and other factors.
Apaf-2 activity was assayed by recombining with Apaf-1 after purification by the following steps. First, the Apaf-2 fraction was subjected to 50% ammonium sulfate precipitation. All of the activity remained in the supernatant while most of the protein precipitated (Table I). The supernatant was loaded onto a phenyl-sepharose (hydrophobic interaction) column and the activity was eluted with 1 M ammonium sulfate. The eluate was passed through a gel filtration column; active fractions were subjected to sequential Mono Q (anion exchange) and Mono S (cation exchange) chromatography. The Apaf-2 activity flowed through the Mono Q column, and the flow through was directly loaded onto the Mono S column. Bound Apaf-2 activity was then eluted with a 100-300 mM NaCl linear salt gradient. The fractions from the Mono S column were collected and assayed. […] The active fractions were analyzed by SDS-PAGE (FIG. 4B). A protein of apparent molecular mass of 15 kDa was co-eluted with the activity. No other proteins were detected by silver staining in the active Apaf-2 fractions.
CPP32 was translated and purified as described above. […]

CPP32 [2] = assay: Reconstitution of dATP-dependent activation of CPP32 with S-cytosol (sucrose-prepared HeLa cytosol); assay type: biochemical, human; settings: S-cytosol 50 μg supplemented with 0.2 μg, 1 mM dATP
Description: On day 0, Hela cells were set up at 5×10^5 cells per 100 mm dish in medium A as described hereinbelow. On day 2, cells were harvested, collected by centrifugation (1000 g, 10 min, 4° C.). After washed once with ice-cold PBS, the cell pellet was suspended in 5 volumes of ice-cold buffer A containing 250 mM sucrose. The cells were disrupted by douncing 3 times in a 5 ml Wheaton douncer with a pestle polished with sand paper. After microcentrifugation for 5 min at 4° C., the supernatants were further centrifuged at 10^5×g for 30 min in a table top ultracentrifuge (Beckman Instruments, Fullerton, Calif.). The resulting supernatants were designated as S-cytosol. Aliquots of S-cytosol (50 μg) alone (lanes 1 and 2), or supplemented with 0.2 μg Apaf-2 purified through the Mono S column (lanes 3 and 4), were incubated with aliquots of 3 μl in vitro translated, ^35S-labeled CPP32 in the absence (lanes 1, 3) or presence (lanes 2, 4) of 1 mM dATP at 30° C. for 1 hr in a final reaction volume of 20 μl of buffer A. Samples were subjected to SDS-PAGE and transferred to a nitrocellulose filter which were then exposed to film for 16 hr at room temperature.
Human cytochrome c is encoded by a single copy nuclear gene [Evans and Scarpulla (1988) Proc. Natl. Acad. Sci. USA 85, 9625-9629] which is translated on cytoplasmic ribosomes as apocytochrome c. […]

Apaf-2: 15 kDa factor bound to phosphocellulose column, purified from HeLa S-100, identified as human cytochrome c
dATP-dependent activation of CPP32 by fraction alone (CPP32 [1]): Neither fraction alone supported dATP-dependent activation of CPP32
dATP-dependent activation of CPP32 in S-cytosol (CPP32 [2]): incapable of initiating the dATP-dependent activation of CPP32 (lanes 1 and 2) unless purified cytochrome c was added

Reference: US6558900B2, “Regulation of apoptosis and in vitro model for studies thereof” (Emory University, priority 1996, dated 2003)
